# Experimental data as given in patent US11246907B2, “Immunosuppressive agents and their use in therapy” (Norwegian University of Science and Technology, priority 2013, dated 2022).
# Ends that are not written are not given here.
# Assays:
# monocytes = test: Annexin staining / flow cytometry of monocytes (apoptosis); type: cell-based, human; details: for Percentage of annexin positive cells: 4 hours, monocytes
# Method: Annexin staining was used to determine cell viability and cells were counted using flow cytometry.
# Peripheral blood […] were isolated from A+ buffy coats (Blood Bank, St. Olav's University Hospital) by density gradient centrifugation (Lymphoprep; Axis-Shield PoC, Oslo, Norway). The adherent cell fraction after 90 minute incubation, termed monocytes, were washed twice with HANKS and maintained in RPMI 1640 supplemented with 2 mM glutamine, […] gentamicin and 25% heat-inactivated HS over-night. Cells were cultured at 37° C. in a humidified atmosphere of 5% CO2 over-night. […] An R11 peptide and no peptide treatment were used as controls. After 4 hours, the cells were washed once in PBS, and re-suspended in buffer as recommended by the manufacturer of the Annexin V-Pacific Blue kit (Invitrogen). Cells were identified monocytes according to size (FSC) and granularity (SSC).
# PACT = test: Western blot of PACT protein levels in HaCaT cells; type: cell-based, human; details: 12 μM ATX-101 + 2 μg/ml polyIC, 4 h
# Method: Protein levels were corrected for loading differences (β-tubulin) and normalized to untreated control cells. […] Bar, 5 μm.
# (§1) The multiple myeloma cell lines JJN-3 (gift from J. Ball, University of Birmingham, United Kingdom) were grown in RPMI 1640 (Sigma-Aldrich, Schnelldorf, Germany) supplemented with 10% FCS, 2 mM glutamine (Sigma-Aldrich), 2.5 μg/ml amphotericin B (Sigma-Aldrich) and 100 μg/ml gentamicin (Invitrogen, Carlsbad, Calif., USA). HaCaT cells (spontaneously transformed keratinocytes) were cultured in DMEM (Sigma-Aldrich) containing FCS, glutamine, amphotericin B, and gentamicin. All cells were cultured at 37° C. in a humidified atmosphere of 5% CO2.
# Mononucleated cells were seeded and stimulated as described above. JJN-3 cells were treated with ATX-101 (6 μM) for 4 h. HaCaT cells were treated with ATX-101 (12 μM), polylC (2 μg/ml), and LPS (100 ng/ml) for 4 h. […] The proteins were visualized with the Odyssey infrared imaging system (LI-COR) and quantified using Odyssey Image Studio V2. […]
# JJN-3 cells = test: Cell survival (MTT) assay, multiple myeloma cell line JJN-3; type: cell-based; details: 6 μM ATX-101 with 5 μM LY294002 or 10 μM SB20358
# Method: Phosphorylated kinase levels were corrected for loading differences (β-tubulin) and normalized to untreated control cells. Data is from three independent experiments (mean±SD).
# as §1
# Cells were seeded into 96-well plates and ATX-101, kinase inhibitors (SB203580 and BIRB0796), and polyIC were added alone or in combination at the indicated concentrations. Cells were exposed continuously and harvested every day for the next four days using the MTT (3-(4.5-Dimethylthiazol-2-yl)-2.5 diphenyl-tetrazolium bromide) assay (Gilljam et al., 2009, supra). The average from at least 4 wells was used to calculate cell survival.
# normal cells = details: 4 μM dose; cited from earlier work
# PCNA = PCNA (Homo sapiens, UniProt P12004); test: Microscale thermophoresis (MST) of peptide interaction with PCNA; type: binding
# Sequence of PCNA (P12004 whole entry): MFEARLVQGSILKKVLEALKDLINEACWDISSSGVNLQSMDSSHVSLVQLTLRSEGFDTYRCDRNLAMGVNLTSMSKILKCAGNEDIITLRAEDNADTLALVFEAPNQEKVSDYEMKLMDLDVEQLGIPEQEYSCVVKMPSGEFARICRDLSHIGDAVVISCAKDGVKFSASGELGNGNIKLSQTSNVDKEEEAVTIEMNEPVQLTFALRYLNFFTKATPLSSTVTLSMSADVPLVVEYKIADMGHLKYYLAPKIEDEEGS
# Method: Microscale thermophoresis (MST) was used to determine the dissociation constant for various APIM containing peptides.
# PCNA was labeled with a fluorescent molecule. The concentration of PCNA was kept constant, whereas dilutions of each APIM containing peptide were prepared (1:1).
# [1] = system: p70 S6 kinase Thr389 phosphorylation; test: Western blot of p70 S6 kinase Thr389 phosphorylation in JJN-3 cells; type: cell-based; details: 6 μM ATX-101, 4, 8, 24 h
# [2] = system: ERK1 Thr202/Tyr204 and ERK2 Thr185/Tyr187 phosphorylation; test: Western blot of ERK1/2 phosphorylation in JJN-3 cells; type: cell-based; details: 6 μM ATX-101, 4, 8, 24 h
substance,measurement,setting,value
Ac-MDRWLVKWKKKRKIRRRRRRRRRRR [ATX-101],Percentage of annexin positive cells,monocytes; 5μM peptide treatment,72%
same,Percentage of annexin positive cells,monocytes; 10 μM peptide treatment,79%
same,induction of apoptosis in monocytes,monocytes; at the concentration used for cytokine secretion (4 μM),did not induce apoptosis
same,"PACT protein level, polyIC-stimulated HaCaT cells",PACT,further reduced the protein level of PACT
same,"growth-inhibitory effect of kinase inhibitors in combination with ATX-101 (cell growth, MTT)",JJN-3 cells,increased the growth-inhibitory effect of p38 MAPK and class I PI3K inhibitors
same,toxicity on normal cells in BMCS assays,normal cells,low toxicity
same,interaction with PCNA by MST (in words),PCNA,stronger interactions with PCNA than ATX-A
same,phosphorylation of p70 S6 kinase,[1],decreased
same,ERK1/2 phosphorylation,[2],transient increase
